Source: US10543156B2, “Shaping keratin fibres using 2-oxazolidinone compounds” (The Procter & Gamble Company, priority 2015, dated 2020)

Test: Hair straightening efficacy on hair switches, expert grading
Conditions: after 5 wash cycles; for Straightening efficacy Mean grade: 20% active agent in crosslinking composition with 100 ppm 4,5-dibromofluorescein, 100 ppm Eosin Y, water buffered at pH 10, irons at 121° C. with UV light at 380 nm, 8 passes, score on 0-10 scale (0 curly, 10 very straight)
Method: The hair straightening efficacy is tested for the crosslinking compositions described herein. Switches of low lift naturally curly hair are employed. These are shampooed with a Pantene clarifying shampoo to ensure the hair is in a clean state with no residues that could affect the end result. The switches are then rinsed. Excess water is removed from the hair by wringing out the switches. The switches are treated with a crosslinking composition which is pre-prepared in a dark room. The crosslinking composition comprises: active agent as listed in TABLE 2; 100 ppm 4,5-dibromofluorescein; 100 ppm Eosin Y; QSP water buffered at pH 10. These ingredients are mixed on a spinner plate for 30 mins. The crosslinking composition is stored in an amber bottle or a bottle covered in electrical tape to ensure no light access to the crosslinking composition. 0.5 g of crosslinking composition per 1 g hair is employed. The crosslinking composition is left on the hair for 30 minutes. After this time, the hair is blow dried, brushed, and is then mechanically straightened with hybrid light and heat emitting straightening irons (at 250° F. [121° C.] and emitting UV light at 380 nm) with 8 passes.
The switches are then imaged. To simulate durability, the switches are then given one wash-and-dry cycle. One wash-and-dry cycle involves shampooing with a Hairtrition shampoo (Hairtrition Color Protect sulfate-free shampoo from Zotos), rinsing and then drying in a hot box. Once dry the switches are imaged again. The switches are then given 4 further wash-and-dry cycles. Once dry the switches are imaged again. An expert grader gives the images of the switches a score on a 0-10 scale. The scale is a standard scale set as curly hair having 4-5 nodes of curls is a score of 0 and very straight hair is a 10. Thus, the switches are compared to a normal state of hair.
Using an expert grader is reliable because the grader is trained on measuring/scaling the configuration of the hair from straight to curly in a consistent way. Numeric data obtained by this method is averaged, and statistical analysis is conducted using JMP statistical software available from SAS Institute at the 87% confidence level.

Compound	Straightening efficacy Mean grade	Straightening efficacy compared with the control (in words) (statistical analysis at the 87% confidence level)
O=C1NCCO1 [2-oxazolidinone]	3.7	
O=C1OCCN1CCO [N-(hydroxyethyl)-2-oxazolidinone]	4.3	significantly better straightening efficacy than the control
CC(=O)N1CCOC1=O [N-acetyl-2-oxazolidinone]	3.0	
